One assay deals with GT-1a of NS5A Replicon. Kind of assay: HCV double reporter gene (Renilla luciferase) replicon assay, GT-1a. The assay is classed as cell-based, Hepatitis C virus (HCV). As to conditions: GT-1a replicon; class symbols; read-out: EC50 For GT-1a of NS5A Replicon. How it is done: Antiviral Assay for Inhibition Activity (EC50):
The study is completed by a new constructed double reporter genes replicon assay system, the capacity of viral replicon in infected cell is determined by detecting the reporter gene Renilla luciferase. The relationship of reporter genes, HCV RNA replicon and viral proteins is well linear. 8 gradient concentrations for 2-fold dilution, 3 wells, 3 times repetition and 1 or 2 control drugs are set to finally determine EC50 of compound.
THF was distilled from sodium metal and benzophenone. DCM, pentane and hexane were distilled form calcium hydride. Special raw material and intermediate in the invention were ordered by contract synthesis from Zannan SciTech Co., Let in China, others reagents were purchased from Shanghai reagent company, Aldrich, Acros etc. As intermediates or products during the synthesis is not required for the reaction and other tests the next step, the synthesis is repeated until a sufficient number of times. The invention of the prepared compounds of […] (HCV NS5A) inhibitory activity test was performed by CRO service units such as WuXi AppTec etc.
(In a reporter assay the amount or activity of a reporter protein is the signal.)
Take `COC(=O)N[C@H](C(=O)N1CCC[C@H]1c1nc2cc(-c3csc4c(-c5ccc(-c6c[nH]c([C@@H]7CCCN7C(=O)[C@H](NC(=O)OC)c7ccccc7)n6)cc5)csc34)ccc2[nH]1)C(C)C` [Ref-4, reference compound]: the EC50 (usually the concentration at which the effect is half-maximal) was 1 to 999 pM.

Still in this assay, the particulars now being: Hepatitis C virus, GT1A, GT-1a replicon; class symbols; read-out: EC50 For GT-1a of NS5A Replicon.
On to `COC(=O)N[C@@H](C(=O)N1CCCC1c1ncc(-c2ccc(-c3cc4sc(-c5cnc([C@@H]6CCCN6C(=O)[C@H](NC(=O)OC)c6ccccc6)[nH]5)cc4s3)cc2)[nH]1)c1ccccc1` (stereo partly shown) [Ref-3, reference compound], for which the EC50 lay within 1 to 999 pM.
As for `COC(=O)N[C@@H](C(=O)N1CC=C[C@H]1c1ncc(-c2ccc(-c3cc4sc(-c5cnc([C@@H]6CCCN6C(=O)[C@H](NC(=O)OC)c6ccccc6)[nH]5)cc4s3)cc2)[nH]1)c1ccccc1` [Compound 6fh], the EC50 lay within 1 to 999 pM.
Consider `COC(=O)N[C@H](C(=O)N1CC=C[C@H]1c1ncc(-c2ccc(-c3ccc(-c4cnc([C@@H]5CCCN5C(=O)[C@@H](NC(=O)OC)C5CCCCC5)[nH]4)cc3)cc2)[nH]1)C1CCCCC1` [Compound 6dk], for which the EC50 was 1 to 999 pM.
On the same count and under the same terms, the value for `CNC(=O)NC(C(=O)N1CC=C[C@H]1c1nc(-c2ccc(-c3ccc(-c4c[nH]c(C5CCCN5C(=O)[C@@H](NC(=O)OC)C(C)C)n4)cc3)cc2)c[nH]1)C(C)C` (stereo partly shown) [Compound 6cj] was 1 to 999 pM.
Turning to `COC(=O)N[C@H](C(=O)N1CC=CC1c1nc(-c2ccc(-c3ccc(-c4c[nH]c([C@@H]5COCCN5C(=O)[C@@H](NC(=O)OC)C(C)C)n4)cc3)cc2)c[nH]1)C(C)C` (stereo partly shown) [Compound 6bm], the EC50 lay in the range of 1 to 999 pM.
The same measure, in the same setting: with `COC(=O)N[C@H](C(=O)N1CC=C[C@H]1c1ncc(-c2ccc(-c3ccc(-c4cnc([C@@H]5C=CCN5C(=O)[C@@H](NC(=O)OC)C5CCCCC5)[nH]4)cc3)cc2)[nH]1)C1CCCCC1` [Compound 6dm] the figure was 1 to 999 pM; with `COC(=O)N[C@H](C(=O)N1CC=C[C@H]1c1ncc(-c2ccc(-c3ccc(-c4cnc([C@@H]5CN(C(=O)OC(C)(C)C)CN5C(=O)[C@@H](NC(=O)OC)C5CCCCC5)[nH]4)cc3)cc2)[nH]1)C(C)C` [Compound 6cy], 1 to 999 pM; with `CC(C)[C@H](NC(=O)OC(C)(C)C)C(=O)N1CCC[C@H]1c1nc(-c2ccc(-c3ccc(-c4cnc([C@@H]5C[C@@H](OC(=O)N6Cc7ccc8c(c7C6)OCO8)CN5C(=O)[C@@H](NC(=O)OC(C)(C)C)C(C)C)[nH]4)cc3)cc2)c[nH]1` [Compound 6b], greater than 50000 pM.
`COC(=O)N[C@H](C(=O)N1CC=C[C@H]1c1ncc(-c2ccc(-c3ccc(-c4cnc([C@@H]5CCCN5C(=O)[C@@H](NC(=O)OC)C5CCCCC5)[nH]4)cc3)cc2)[nH]1)C1CCCC1` [Compound 6dn]: the EC50 is 1 to 999 pM.
As for `COC(=O)N[C@H](C(=O)N1CN(C(=O)N2Cc3cc4c(cc3C2)OCO4)C[C@H]1c1ncc(-c2ccc(-c3cccc4c(-c5cnc([C@@H]6CCCN6C(=O)[C@@H](NC(=O)OC)C(C)C)[nH]5)cccc34)cc2)[nH]1)C(C)C` [Compound 6bv], the half-maximal effective concentration (EC50) was greater than 50000 pM.
For the compound `COC(=O)N[C@H](C(=O)N1CC=C[C@H]1c1nc(-c2ccc(-c3ccc(-c4cnc([C@@H]5CC6(CN5C(=O)[C@H](NC(=O)OC)c5ccccc5)OCCO6)[nH]4)cc3)cc2)c[nH]1)C(C)C` [Compound 6du], the EC50 was in the range of 1 to 999 pM.
Same read-out and setting: the value for `COC(=O)N[C@@H](C(=O)N1CC=CC1c1nc(-c2ccc(-c3cc4sc(-c5c[nH]c(C6C=CCN6C(=O)[C@H](NC(=O)OC)c6ccccc6)n5)cc4s3)cc2)c[nH]1)c1ccccc1` (stereo partly shown) [Compound 6fe] was 1 to 999 pM; that for `COC(=O)N[C@H](C(=O)N1CCC[C@H]1c1ncc(-c2ccc(-c3ccc(-c4cnc([C@@H]5CN(C(=O)N6Cc7ccc(OC)c(OC)c7C6)CN5C(=O)[C@@H](NC(=O)OC)C(C)C)[nH]4)cc3)cc2)[nH]1)C(C)C` [Compound 6cq] was 1000 to 49900 pM.
`COC(=O)N[C@H](C(=O)N1C[C@@H](OC(=O)N2Cc3ccc4c(c3C2)OCO4)CC1c1nc(-c2ccc(-c3ccc(-c4c[nH]c([C@@H]5COCCN5C(=O)[C@@H](NC(=O)OC)C(C)C)n4)cc3)cc2)c[nH]1)C(C)C` (stereo partly shown) [Compound 6ai]: the EC50 is 1 to 999 pM.
The same measure, in the same setting: the value for `COC(=O)N[C@H](C(=O)N1CCCC1c1nc(-c2ccc(-c3ccc(-c4c[nH]c([C@@H]5CCCN5C(=O)C5(NC(=O)OC)CCCCC5)n4)cc3)cc2)c[nH]1)C(C)C` (stereo partly shown) [Compound 6aa] was 1 to 999 pM.
Same read-out and setting: with `CC(C)[C@H](NC(=O)OC1CCCC1)C(=O)N1CCC[C@H]1c1nc(-c2ccc(-c3ccc(-c4cnc([C@@H]5C[C@@H](OC(=O)N6Cc7cc8c(cc7C6)OCO8)CN5C(=O)[C@@H](NC(=O)OC5CCCC5)C(C)C)[nH]4)cc3)cc2)c[nH]1` [Compound 6r] the figure was greater than 50000 pM; with `COC(=O)N[C@H](C(=O)N1CC=CC1c1nc(-c2ccc(-c3ccc(-c4c[nH]c([C@@H]5CCCCN5C(=O)[C@@H](NC(=O)OC)C(C)C)n4)cc3)cc2)c[nH]1)C(C)C` (stereo partly shown) [Compound 6bk], 1 to 999 pM.
On to `COC(=O)N[C@H](C(=O)N1CN(C(=O)N2Cc3ccc(F)cc3C2)CC1c1nc(-c2ccc(-c3ccc(-c4c[nH]c([C@@H]5CCCN5C(=O)[C@@H](NC(=O)OC)C(C)C)n4)cc3)cc2)c[nH]1)C(C)C` (stereo partly shown) [Compound 6as], for which the EC50 lay in the range of 1 to 999 pM.
Same read-out and setting: the value for `CC(C)[C@H](NC(=O)OC(C)(C)C)C(=O)N1C[C@H](OC(=O)N2Cc3cccc(F)c3C2)CC1c1ncc(-c2ccc(-c3ccc(-c4c[nH]c([C@@H]5CCCN5C(=O)[C@@H](NC(=O)OC(C)(C)C)C(C)C)n4)cc3)cc2)[nH]1` (stereo partly shown) [Compound 6t] was greater than 50000 pM; that for `COC(=O)N[C@H](C(=O)N1CC=C[C@H]1c1ncc(-c2ccc(-c3ccc(-c4cnc([C@@H]5CN(S(=O)(=O)C6CC6)CN5C(=O)[C@@H](NC(=O)OC)C(C)C)[nH]4)cc3)cc2)[nH]1)C(C)C` [Compound 6da] was 1 to 999 pM.
On the same count and under the same terms, the value for `COC(=O)N[C@H](C(=O)N1C[C@@H](OC(=O)N2Cc3ccc4c(c3C2)OCO4)CC1c1nc(-c2ccc(-c3ccc(-c4c[nH]c([C@@H]5CCCCN5C(=O)[C@@H](NC(=O)OC)C(C)C)n4)cc3)cc2)c[nH]1)C(C)C` (stereo partly shown) [Compound 6ad] was 1 to 999 pM; that for `COC(=O)N[C@H](C(=O)N1CC=C[C@H]1c1nc(-c2csc3c(-c4ccc(-c5c[nH]c(C6CCCN6C(=O)[C@H](NC(=O)OC)c6ccccc6)n5)cc4)csc23)c[nH]1)C(C)C` (stereo partly shown) [Compound 6fy] was 1 to 999 pM.
On the same count and under the same terms, with `COC(=O)N[C@H](C(=O)N1CN(C(=O)N2Cc3cc(OC)c(OC)cc3C2)CC1c1nc(-c2ccc(-c3ccc(-c4c[nH]c([C@@H]5CCCN5C(=O)[C@@H](NC(=O)OC)C(C)C)n4)cc3)cc2)c[nH]1)C(C)C` (stereo partly shown) [Compound 6ax] the figure was 1 to 999 pM; with `COC(=O)N[C@H](C(=O)N1CCCC1c1nc(-c2ccc(-c3ccc(-c4c[nH]c([C@@H]5CCCCN5C(=O)[C@@H](NC(=O)OC)C(C)C)n4)cc3)cc2)c[nH]1)C(C)C` (stereo partly shown) [Compound 6ab], 1 to 999 pM.

Still in this assay, the particulars now being: Hepatitis C virus, GT1A, read-out: EC50 For GT-1a of NS5A Replicon.
Consider `CC(C)[C@H](NC(=O)OC1CCCC1)C(=O)N1C[C@H](OC(=O)N2Cc3ccc4c(c3C2)OCO4)C[C@H]1c1nc(-c2ccc(-c3ccc(-c4cnc([C@@H]5C[C@@H](OC(=O)N6Cc7ccc8c(c7C6)OCO8)CN5C(=O)[C@@H](NC(=O)OC5CCCC5)C(C)C)[nH]4)cc3)cc2)c[nH]1` [Compound 6g], for which the EC50 was greater than 50000 pM.
As for `CC(C)[C@H](NC(=O)OC(C)(C)C)C(=O)N1C[C@H](OC(=O)N2Cc3ccc4c(c3C2)OCO4)CC1c1ncc(-c2ccc(-c3ccc(-c4c[nH]c([C@@H]5C[C@@H](OC(=O)N6Cc7ccc8c(c7C6)OCO8)CN5C(=O)[C@@H](NC(=O)OC(C)(C)C)C(C)C)n4)cc3)cc2)[nH]1` (stereo partly shown) [Compound 6f], the EC50 is greater than 50000 pM.

The same assay, now with this note: Hepatitis C virus, genotype 1a / genotype 6a, read-out: EC50 for Replicon (pM) of GT-1a to GT-6a: 1a.
For the compound `COC(=O)N[C@@H](C(=O)N1CCCC1c1ncc(-c2ccc(-c3cc4sc(-c5cnc([C@@H]6CCCN6C(=O)[C@H](NC(=O)OC)c6ccccc6)[nH]5)cc4s3)cc2)[nH]1)c1ccccc1` (stereo partly shown) [Ref-3, reference compound], the EC50 turned out to be 51 pM.

For the origin of these results see patent US9820972B2, “Antiviral compounds highly effective as HCV-NS5A inhibitor” (priority 2013, dated 2017).
